The values that follow come from ChEMBL document CHEMBL1201862, “PubChem BioAssay data set” (2004).

Experiment [1] deals with Signal transducer and activator of transcription 1-alpha/beta (Homo sapiens, UniProt P42224). Kind of experiment: STAT1 signalling inhibitors, dose response, cell-based, NIH 3T3, luciferase reporter (AID 1396). The experiment is classed as functional. On the technique in general: In a reporter assay the amount or activity of a reporter protein is the signal.
The nature of experiment [2]: intracellular Trypanosoma cruzi inhibitors in host cells – cell-based, plate reader, cherry-pick samples, set 3, dose response (AID 651818).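 Also: compounds incubated with infected cells for about four days.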 The experiment is classed as functional.
For another experiment, the target named is Paired box protein Pax-8 (Homo sapiens, UniProt Q06710). Kind of experiment: inhibitors of PAX8-driven TPO luciferase reporter, dose response, RMG-I cells, cherry-pick (AID 687027).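 Also: luciferase reporter driven by Pax8 target thyroperoxidase promoter measured by SteadyGlo luminescence.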 The experiment is classed as functional, cell-based.
Experiment [3] is described as follows: PAX2 cell-based inhibition, dose response, selectivity assay for PAX8 inhibitor project, plate reader, dry powder samples (AID 743048).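 Also: HEK293 cells carrying a WT1 promoter luciferase reporter driven by expressed Pax2; potency is for inhibition of Pax2 driven reporter signal.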 The format is functional.
Experiment [4] can be described thus: NIH:OVCAR-3 ovarian cancer cell cytotoxicity, dose response, PAX8 inhibitor project, plate reader, dry powder samples (AID 743044). The experiment is classed as functional, cell-based.
Experiment [5] in a line: PAX5 activity inhibitors, dose response, selectivity assay for PAX8 inhibitor project, cell-based, plate reader, dry powder samples (AID 743047).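 Also: HEK293 cells carrying a Pax5 driven CD19 promoter luciferase reporter; potency of inhibitors that lower reporter luminescence.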 The format is functional.
Experiment [6] is described as follows: cytotoxicity in OVCAR4 cells, dose response, cytotoxicity control for PAX8 inhibitor project, cell-based, plate reader, dry powder, SA11 (AID 743150). The format is functional. The conditions noted are these: OVCAR-4.
A short description of experiment [7]: cytotoxicity in OV-90 ovarian cancer cells, dose response, PAX8 inhibitor project, cell-based, plate reader, dry powder, SA8 (AID 743149). The format is functional.
The nature of experiment [8]: cytotoxicity dependent on PAX8, dose response, cell-based, plate reader, dry powder (AID 743049). The format is functional.
The nature of experiment [9]: IOSE-T80 ovarian epithelial cell cytotoxicity, dose response, cytotoxicity control for PAX8 inhibitor project, plate reader, dry powder samples (AID 743045). The experiment is classed as functional, cell-based.
Experiment [10] is described as follows: A549 cell cytotoxicity, dose response, cytotoxicity control, 24 h, CellTiter-Glo luminescence, cherry-picks (AID 1053115). The experiment is classed as functional, cell-based. The settings on record: A549, 24 h.
Experiment [11] is described as follows: HEK293T cytotoxicity, dose response, cytotoxicity control for miR-122 modulator project, cell-based, inhibitor set, cherry-pick, set 2 (AID 720697). The format is functional.
Experiment [12] can be described thus: HEK293T cytotoxicity, dose response, cytotoxicity control for miR-122 modulator project, cell-based, activator set, cherry-pick (AID 720690).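 Also: HEK293T human cells scored for general mammalian cytotoxicity.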 The experiment is classed as functional.
The nature of experiment [13]: cytotoxicity in OVCAR8 ovarian cancer cells, dose response, PAX8 project, cell-based, plate reader, dry powder samples (AID 743197). The format is functional. The settings on record: OVCAR-8.
Experiment [14] in a line: A549 cell cytotoxicity, dose response, CellTiter-Glo luminescence, dry powder, set 17 (AID 1117284). The experiment is classed as functional, cell-based. In general terms: Cellular ATP, detected with luciferase, serves as a proxy for viable cell number.
Experiment [15] in a line: T. cruzi growth inhibition in host cells, dose response, cell-based, plate reader, dry powder, set 2 (AID 652275). The experiment is classed as functional.
A short description of experiment [16]: growth inhibition of intracellular T. cruzi, dose response, cell-based, plate reader, dry powder samples (AID 651845). The format is functional.
The nature of experiment [17]: T. cruzi intracellular amastigote growth inhibition, dose response, imaging, CA-I/72 strain, bovine embryo skeletal muscle, dry powder (AID 651885). The format is functional, cell-based.
Experiment [18] can be described thus: P. falciparum 3D7-ScDHODH growth inhibitors, dose response, SYBR Green, dry powder samples (AID 1159570).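 Also: parasite growth measured after 72 hours of compound exposure.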 The format is functional, cell-based.
A short description of experiment [19]: P. falciparum Dd2 growth inhibitors, dose response, SYBR Green, dry powder samples, set 9 (AID 1159568). The format is functional, cell-based.
Experiment [20] in a line: P. falciparum Dd2 growth inhibitors, dose response, SYBR Green, cherry-picked samples (AID 1159567). The format is functional, cell-based.
Experiment [21] in a line: P. falciparum Dd2 growth inhibitors, dose response, SYBR Green, dry powder samples (AID 1159566).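 Also: potency for growth inhibition with lower SYBR green DNA signal.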 The format is functional, cell-based.
The nature of experiment [22]: Plasmodium falciparum Dd2 Sybr green parasite growth Measured in Cell-Based and Microorganism Combination System Using Plate Reader - 2153-01_Inhibitor_Dose_DryPowder_Activity_Set3. The experiment is classed as functional.
Experiment [23] is described as follows: P. falciparum ATP4 D1247Y mutant growth inhibitors, dose response, NITD609-resistant line, SYBR Green, dry powder (AID 1159571).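 Also: parasites synchronized at ring stage by sorbitol before testing.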 The format is functional, cell-based.
The nature of experiment [24]: Late stage results for the probe development effort to identify inhibitors of Plasmodium falciparum gametocytes: Luminescence-based cell-based high throughput dose response assay to identify inhibitors of viability of late stage Plasmodium falciparum gametocytes. The experiment is classed as functional.
Experiment [25] in a line: Concentration-dependent survival of SW480 colon cancer line, luminescence detection with CellTiter-Glo, half-maximal inhibitory concentration (AID 1117338). The format is functional.
Experiment [26] is described as follows: RKO cell viability reduction, dose response, CellTiter-Glo luminescence (AID 1117322). The experiment is classed as functional.
Experiment [27] is described as follows: cytotoxicity toward HCT116 cells – cell-based, CellTiter-Glo luminescence, IC50, dose response (AID 1117332). The format is functional. The conditions noted are these: HCT-116.
The nature of experiment [28]: SNU-C1 cell viability reduction, dose response, CellTiter-Glo luminescence (AID 1117323). The experiment is classed as functional, cell-based.
A short description of experiment [29]: half-maximal inhibitory concentration for glucagon-like peptide-1 release, STC-1 cell line, dose-response (AID 1117345). The experiment is classed as functional, cell-based.
The nature of experiment [30]: cytotoxicity toward Colo320 cells – cell-based, CellTiter-Glo luminescence, IC50, dose response (AID 1117334). The format is functional. The settings on record: COLO 320.
A short description of experiment [31]: cytotoxicity toward HT-29 cells – cell-based, CellTiter-Glo luminescence, IC50, dose response (AID 1117330). The format is functional.
Experiment [32] in a line: CellTiter-Glo luminescent dose response of DLD-1 viability loss (AID 1117352). The experiment is classed as functional.
Experiment [33] is described as follows: HCT116 cell viability decrease, GSK3B pretreatment – CellTiter-Glo, IC50, dose response (AID 1117339). The format is functional. The settings on record: HCT-116.
Experiment [34] in a line: Glucagon-like peptide 1 release potency, NCI-H716 cell line, dose-response, half-maximal inhibitory concentration (AID 1117344). The experiment is classed as functional, cell-based.
Experiment [35] can be described thus: Dose-response inhibition of insulin secretion in a rat insulinoma line at 5 mM glucose (AID 1117331). The format is functional, cell-based. The settings on record: INS-1E.
The nature of the next experiment: cells. The settings on record: INS-1E. The experiment is classed as functional, cell-based.

Active and inactive are the calls of the source.

Chain of Paired box protein Pax-8 (Q06710 whole entry): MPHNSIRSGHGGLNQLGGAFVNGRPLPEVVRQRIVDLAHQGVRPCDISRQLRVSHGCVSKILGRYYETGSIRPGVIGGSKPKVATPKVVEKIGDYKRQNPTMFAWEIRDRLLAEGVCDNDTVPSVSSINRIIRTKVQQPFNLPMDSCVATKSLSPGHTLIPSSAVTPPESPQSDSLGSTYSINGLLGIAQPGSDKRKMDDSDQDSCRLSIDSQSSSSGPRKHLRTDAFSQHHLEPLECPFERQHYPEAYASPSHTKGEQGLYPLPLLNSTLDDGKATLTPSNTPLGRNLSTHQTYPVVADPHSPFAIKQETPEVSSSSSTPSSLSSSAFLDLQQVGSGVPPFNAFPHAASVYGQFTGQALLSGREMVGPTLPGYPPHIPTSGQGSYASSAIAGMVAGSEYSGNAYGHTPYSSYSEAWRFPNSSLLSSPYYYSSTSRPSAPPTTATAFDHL
Chain of Signal transducer and activator of transcription 1-alpha/beta (P42224 whole entry): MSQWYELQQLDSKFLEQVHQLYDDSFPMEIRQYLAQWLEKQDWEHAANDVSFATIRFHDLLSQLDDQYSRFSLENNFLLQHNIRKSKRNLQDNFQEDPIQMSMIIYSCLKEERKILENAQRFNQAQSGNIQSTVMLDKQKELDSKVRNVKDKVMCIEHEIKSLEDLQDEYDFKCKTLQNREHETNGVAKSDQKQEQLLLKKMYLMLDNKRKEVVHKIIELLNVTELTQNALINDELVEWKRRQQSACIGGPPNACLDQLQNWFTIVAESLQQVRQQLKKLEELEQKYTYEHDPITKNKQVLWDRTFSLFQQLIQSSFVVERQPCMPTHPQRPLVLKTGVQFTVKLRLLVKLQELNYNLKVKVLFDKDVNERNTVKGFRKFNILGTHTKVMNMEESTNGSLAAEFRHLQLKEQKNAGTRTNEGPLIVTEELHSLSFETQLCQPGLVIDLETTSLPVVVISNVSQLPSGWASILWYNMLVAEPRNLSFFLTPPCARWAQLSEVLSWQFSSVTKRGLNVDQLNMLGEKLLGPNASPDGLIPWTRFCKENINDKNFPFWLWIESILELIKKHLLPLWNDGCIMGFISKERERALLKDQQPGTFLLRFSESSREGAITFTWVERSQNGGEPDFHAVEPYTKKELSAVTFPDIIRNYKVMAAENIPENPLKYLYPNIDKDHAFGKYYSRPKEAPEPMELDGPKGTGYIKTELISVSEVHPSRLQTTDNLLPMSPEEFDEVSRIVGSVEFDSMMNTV

Regarding `CC1C(=O)NN=C1C(=O)N/N=C\C(Br)=C\c1ccccc1` (centres undefined), the half-maximal inhibitory concentration (IC50) in experiment [1] is recorded as 10.5 µM (not active).

With `COc1ccc(S(=O)(=O)Nc2ccc3c(c2)CC(=O)N([C@@H](C)CO)C[C@H](C)[C@@H](CN(C)Cc2ccc(C(F)(F)F)cc2)O3)cc1`, the AC50 in experiment [2] is 3.67 µM (active); on Paired box protein Pax-8, 6.21 µM (active); in experiment [3], 20 µM (active); in experiment [4] it was 49.1 µM (active); in experiment [5] it was 21.7 µM (active); in [6] it was 59.7 µM (active). Further, the AC50 in experiment [7] was > 70 µM (inactive); in [8], 31.3 µM (active).

In the case of `C[C@H](O)C#Cc1ccc2c(c1)O[C@@H](CN(C)Cc1ccc(-c3ccccc3)cc1)[C@H](C)CN([C@H](C)CO)S2(=O)=O`, the AC50 at Paired box protein Pax-8 is 5.27 µM (active); in experiment [9], 34.8 µM (active); in experiment [10] it was 50.8 µM (active); in experiment [4], 46.9 µM (active); in experiment [11], 8.52 µM (active); in [12], 9.51 µM (active). In addition, the values for the concentration at half-maximal activity (AC50) in experiment [13] and in experiment [14] were 44.2 µM (active) and 26.4 µM (active), respectively.

For the molecule `CC(C)N1C[C@H](C)[C@@H](CN(C)Cc2ccc(Oc3ccccc3)cc2)Oc2c(NC(=O)c3ccccc3)cccc2C1=O`, the half-maximal activity concentration (AC50) in experiment [15] and in experiment [16] was 0.506 µM (active) in each case. In experiment [17], the IC50 was > 20 µM (inactive).

Regarding `CO[C@@H]1CN(C)C(=O)c2ccc(NC(=O)c3ccc4c(c3)OCO4)cc2OC[C@@H](C)N(Cc2ccc3c(c2)OCO3)C[C@H]1C`, the AC50 in [18] was 4.99 µM (active); in [19], 1.73 µM (active); in experiment [20], 1.11 µM (active); in experiment [21] it was 0.279 µM (active); in experiment [22] it was 1.92 µM (active); in [23], 1.17 µM (active).

With `O=C(Nc1nccs1)c1cc(C2CC2)nn1-c1ccccc1`, the IC50 in experiment [24] was > 37.2 µM (inactive).

Regarding `Clc1ccc(C(Cn2ccnc2)OCc2c(Cl)cccc2Cl)c(Cl)c1` (centres undefined) [ISOCONAZOLE], the IC50 in experiment [25] is 2.6 µM (active); in experiment [26], 4.01 µM (active); in [27], 1.59 µM (active); in experiment [28], 0.886 µM (active); in [29], > 40 µM (inactive); in experiment [30], 1.82 µM (active). Further, the IC50 in [31] was 5 µM (inactive); in [32] it was 2.36 µM (active); in experiment [33], 1.4 µM (active); in experiment [34] it was > 40 µM (inactive).

For the molecule `CC1CC(=O)NN=C1c1ccc(NCC(C)(C)NCC(O)COc2cc(Cl)ccc2C#N)cc1` (centres undefined) [OBERADILOL], the IC50 in experiment [35] was 15.2 µM (inactive); in “cells” it was > 33.3 µM (inactive).

As usually defined, the IC50 is the point on the concentration scale where inhibition reaches its midpoint. As usually defined, the AC50 is the midpoint of the concentration-response curve, whichever way the signal moves.
